Test results as given in patent publication US20260364079A1 (Principia Biopharma Inc., priority 2022, published 2026).

Assay: phase 1/2 study in relapsed/refractory ITP (NCT03395210), safety
Conditions: for Abdominal discomfort / Abdominal distension / Abdominal pain / Abnormal dreams / Akathisia / Alopecia / Anemia / Any TEAE / Arthralgia / Arthropod bite / Back pain / Conjunctival hemorrhage / Contusion / Costochondritis / Cough / Decreased appetite / Defecation urgency / Diarrhea / Dizziness / Dyspepsia / Dyspnea / Dyspnea exertional / Edema / Epigastric discomfort / Epistaxis / Erysipelas / Fatigue / Frequent bowel movements / Gingival bleeding / Headache / Heavy menstrual bleeding / Hypoesthesia / Hypophosphatemia / I lot flush / Ilypokalemia / Increased white blood cell count / Maculo-papular rash / Malaise / Micturition urgency / Muscle spasms / Myalgia / Nasal congestion / Nasopharyngitis / Nausea / Peripheral swelling / Petechiae / Pruritus / Purpura / Rash / Thrombocytopena / Upper abdominal pain / Upper respiratory tract infection / Urinary tract infection / Vomiting: TEAE any cause
From the text: The Safety Population was used for all safety analyses.
Pre-existing conditions that worsened during a study were reported as AEs.
Safety was graded per NCI CTCAE, version 4.0.

[1] = 45 patients initiating 400 mg bid
[2] = any cause, unrelated to rilzabrutinib treatment, patients
[3] = baseline through end of treatment

## CC(C)(C=C(C#N)C(=O)N1CCC[C@@H](n2nc(-c3ccc(Oc4ccccc4)cc3F)c3c(N)ncnc32)C1)N1CCN(C2COC2)CC1 (mixture of isomers) [rilzabrutinib, (R)-2-[3-[4-amino-3-(2-fluoro-4-phenoxy-phenyl)pyrazolo[3,4-d]pyrimidin-1-yl]piperidine-1-carbonyl]-4-methyl-4-[4-(oxetan-3-yl)piperazin-1-yl]pent-2-enenitrile]
200 mg qd
  Rescue medication use: 1 patient
300 mg bid, patients
  Rescue medication use: 1
400 mg bid, patients
  Rescue medication use: 5
[1]
  dose reductions/interruptions due to adverse events: no dose reductions/interruptions due to adverse events
  dose-limiting toxicities: no dose-limiting toxicities
ITP patients
  tolerability: well-tolerated
  treatment-related bleeding or thrombotic events: no reported treatment-related bleeding or thrombotic events
Any grade
  Abdominal discomfort: 1 (2) number of patients (percent)
  Abdominal distension: 6 (10) number of patients (percent)
  Abdominal pain: 3 (5) number of patients (percent)
  Abnormal dreams: 1 (2) number of patients (percent)
  Akathisia: 1 (2) number of patients (percent)
  Alopecia: 2 (3) number of patients (percent)
  Anemia: 4 (7) number of patients (percent)
  Any TEAE: 48 (80) number of patients (percent)
  Arthralgia: 5 (8) number of patients (percent)
  Arthropod bite: 3 (5) number of patients (percent)
  Back pain: 8 (13) number of patients (percent)
  Conjunctival hemorrhage: 5 (8) number of patients (percent)
  Contusion: 11 (18) number of patients (percent)
  Costochondritis: 2 (3) number of patients (percent)
  Cough: 2 (3) number of patients (percent)
  Decreased appetite: 1 (2) number of patients (percent)
  Defecation urgency: 1 (2) number of patients (percent)
  Diarrhea: 22 (37) number of patients (percent)
  Dizziness: 2 (3) number of patients (percent)
  Dyspepsia: 4 (7) number of patients (percent)
  Dyspnea: 2 (3) number of patients (percent)
  Dyspnea exertional: 2 (3) number of patients (percent)
  Edema: 2 (3) number of patients (percent)
  Epigastric discomfort: 1 (2) number of patients (percent)
  Epistaxis: 2 (3) number of patients (percent)
  Erysipelas: 1 (2) number of patients (percent)
  Fatigue: 12 (20) number of patients (percent)
  Frequent bowel movements: 1 (2) number of patients (percent)
  Gingival bleeding: 3 (5) number of patients (percent)
  Headache: 7 (12) number of patients (percent)
  Heavy menstrual bleeding: 2 (3) number of patients (percent)
  Hypoesthesia: 1 (2) number of patients (percent)
  Hypophosphatemia: 2 (3) number of patients (percent)
  I lot flush: 1 (2) number of patients (percent)
  Ilypokalemia: 1 (2) number of patients (percent)
  Increased white blood cell count: 1 (2) number of patients (percent)
  Maculo-papular rash: 1 (2) number of patients (percent)
  Malaise: 1 (2) number of patients (percent)
  Micturition urgency: 1 (2) number of patients (percent)
  Muscle spasms: 2 (3) number of patients (percent)
  Myalgia: 1 (2) number of patients (percent)
  Nasal congestion: 2 (3) number of patients (percent)
  Nasopharyngitis: 3 (5) number of patients (percent)
  Nausea: 21 (35) number of patients (percent)
  Peripheral swelling: 3 (5) number of patients (percent)
  Petechiae: 4 (7) number of patients (percent)
  Pruritus: 2 (3) number of patients (percent)
  Purpura: 2 (3) number of patients (percent)
  Rash: 3 (5) number of patients (percent)
  Thrombocytopena: 2 (3) number of patients (percent)
  Upper abdominal pain: 3 (5) number of patients (percent)
  Upper respiratory tract infection: 3 (5) number of patients (percent)
  Urinary tract infection: 2 (3) number of patients (percent)
  Vomiting: 4 (7) number of patients (percent)
  ≥1 treatment-related, treatment-emergent adverse event: 52%
Grade 1
  Abdominal discomfort: 1 (2) number of patients (percent)
  Abdominal distension: 6 (10) number of patients (percent)
  Abdominal pain: 1 (2) number of patients (percent)
  Abnormal dreams: 1 (2) number of patients (percent)
  Akathisia: 1 (2) number of patients (percent)
  Alopecia: 2 (3) number of patients (percent)
  Anemia: — (represents zero events)
  Any TEAE: 43 (72) number of patients (percent)
  Arthralgia: 3 (5) number of patients (percent)
  Arthropod bite: 3 (5) number of patients (percent)
  Back pain: 7 (12) number of patients (percent)
  Conjunctival hemorrhage: 5 (8) number of patients (percent)
  Contusion: 7 (12) number of patients (percent)
  Costochondritis: 2 (3) number of patients (percent)
  Cough: 2 (3) number of patients (percent)
  Decreased appetite: 1 (2) number of patients (percent)
  Defecation urgency: — (represents zero events)
  Diarrhea: 19 (32) number of patients (percent)
  Dizziness: 2 (3) number of patients (percent)
  Dyspepsia: 3 (5) number of patients (percent)
  Dyspnea: 2 (3) number of patients (percent)
  Dyspnea exertional: 2 (3) number of patients (percent)
  Edema: 2 (3) number of patients (percent)
  Epigastric discomfort: — (represents zero events)
  Epistaxis: 2 (3) number of patients (percent)
  Erysipelas: — (represents zero events)
  Fatigue: 10 (17) number of patients (percent)
  Frequent bowel movements: — (represents zero events)
  Gingival bleeding: 3 (5) number of patients (percent)
  Headache: 7 (12) number of patients (percent)
  Heavy menstrual bleeding: 1 (2) number of patients (percent)
  Hypoesthesia: — (represents zero events)
  Hypophosphatemia: — (represents zero events)
  I lot flush: — (represents zero events)
  Ilypokalemia: 1 (2) number of patients (percent)
  Increased white blood cell count: — (represents zero events)
  Maculo-papular rash: 1 (2) number of patients (percent)
  Malaise: 1 (2) number of patients (percent)
  Micturition urgency: 1 (2) number of patients (percent)
  Muscle spasms: 2 (3) number of patients (percent)
  Myalgia: 1 (2) number of patients (percent)
  Nasal congestion: 1 (2) number of patients (percent)
  Nasopharyngitis: 2 (3) number of patients (percent)
  Nausea: 18 (30) number of patients (percent)
  Peripheral swelling: 3 (5) number of patients (percent)
  Petechiae: 4 (7) number of patients (percent)
  Pruritus: 1 (2) number of patients (percent)
  Purpura: 2 (3) number of patients (percent)
  Rash: 1 (2) number of patients (percent)
  Thrombocytopena: — (represents zero events)
  Upper abdominal pain: 2 (3) number of patients (percent)
  Upper respiratory tract infection: 2 (3) number of patients (percent)
  Urinary tract infection: 1 (2) number of patients (percent)
  Vomiting: 3 (5) number of patients (percent)
Grade 2
  Abdominal discomfort: — (represents zero events)
  Abdominal distension: — (represents zero events)
  Abdominal pain: 2 (3) number of patients (percent)
  Abnormal dreams: — (represents zero events)
  Akathisia: — (represents zero events)
  Alopecia: — (represents zero events)
  Anemia: 2 (3) number of patients (percent)
  Any TEAE: 30 (50) number of patients (percent)
  Arthralgia: 2 (3) number of patients (percent)
  Arthropod bite: — (represents zero events)
  Back pain: 1 (2) number of patients (percent)
  Conjunctival hemorrhage: — (represents zero events)
  Contusion: 3 (5) number of patients (percent)
  Costochondritis: — (represents zero events)
  Cough: — (represents zero events)
  Decreased appetite: — (represents zero events)
  Defecation urgency: 1 (2) number of patients (percent)
  Diarrhea: 3 (5) number of patients (percent)
  Dizziness: — (represents zero events)
  Dyspepsia: 1 (2) number of patients (percent)
  Dyspnea: — (represents zero events)
  Dyspnea exertional: — (represents zero events)
  Edema: — (represents zero events)
  Epigastric discomfort: 1 (2) number of patients (percent)
  Epistaxis: — (represents zero events)
  Erysipelas: 1 (2) number of patients (percent)
  Fatigue: 2 (3) number of patients (percent)
  Frequent bowel movements: 1 (2) number of patients (percent)
  Headache: — (represents zero events)
  Heavy menstrual bleeding: 1 (2) number of patients (percent)
  Hypoesthesia: 1 (2) number of patients (percent)
  Hypophosphatemia: 2 (3) number of patients (percent)
  I lot flush: 1 (2) number of patients (percent)
  Ilypokalemia: — (represents zero events)
  Increased white blood cell count: 1 (2) number of patients (percent)
  Maculo-papular rash: — (represents zero events)
  Malaise: — (represents zero events)
  Micturition urgency: — (represents zero events)
  Muscle spasms: — (represents zero events)
  Myalgia: — (represents zero events)
  Nasal congestion: 1 (2) number of patients (percent)
  Nasopharyngitis: 1 (2) number of patients (percent)
  Nausea: 3 (5) number of patients (percent)
  Peripheral swelling: — (represents zero events)
  Petechiae: — (represents zero events)
  Pruritus: 1 (2) number of patients (percent)
  Purpura: — (represents zero events)
  Rash: 2 (3) number of patients (percent)
  Thrombocytopena: — (represents zero events)
  Upper abdominal pain: 1 (2) number of patients (percent)
  Upper respiratory tract infection: 1 (2) number of patients (percent)
  Urinary tract infection: 1 (2) number of patients (percent)
  Vomiting: 1 (2) number of patients (percent)
Grade 3/4
  Abdominal discomfort: — (represents zero events)
  Abdominal distension: — (represents zero events)
  Abdominal pain: — (represents zero events)
  Abnormal dreams: — (represents zero events)
  Akathisia: — (represents zero events)
  Alopecia: — (represents zero events)
  Anemia: 2 (3) number of patients (percent)
  Arthralgia: — (represents zero events)
  Arthropod bite: — (represents zero events)
  Back pain: — (represents zero events)
  Conjunctival hemorrhage: — (represents zero events)
  Contusion: 1 (2) number of patients (percent)
  Costochondritis: — (represents zero events)
  Cough: — (represents zero events)
  Decreased appetite: — (represents zero events)
  Defecation urgency: — (represents zero events)
  Diarrhea: — (represents zero events)
  Dizziness: — (represents zero events)
  Dyspepsia: — (represents zero events)
  Dyspnea: — (represents zero events)
  Dyspnea exertional: — (represents zero events)
  Edema: — (represents zero events)
  Epigastric discomfort: — (represents zero events)
  Epistaxis: — (represents zero events)
  Erysipelas: — (represents zero events)
  Fatigue: — (represents zero events)
  Frequent bowel movements: — (represents zero events)
  Headache: — (represents zero events)
  Heavy menstrual bleeding: — (represents zero events)
  Hypoesthesia: — (represents zero events)
  Hypophosphatemia: — (represents zero events)
  I lot flush: — (represents zero events)
  Ilypokalemia: — (represents zero events)
  Increased white blood cell count: — (represents zero events)
  Maculo-papular rash: — (represents zero events)
  Malaise: — (represents zero events)
  Micturition urgency: — (represents zero events)
  Muscle spasms: — (represents zero events)
  Myalgia: — (represents zero events)
  Nasal congestion: — (represents zero events)
  Nasopharyngitis: — (represents zero events)
  Nausea: — (represents zero events)
  Peripheral swelling: — (represents zero events)
  Petechiae: — (represents zero events)
  Pruritus: — (represents zero events)
  Purpura: — (represents zero events)
  Rash: — (represents zero events)
  Thrombocytopena: 2 (3) number of patients (percent)
  Upper abdominal pain: — (represents zero events)
  Upper respiratory tract infection: — (represents zero events)
  Urinary tract infection: — (represents zero events)
  Vomiting: — (represents zero events)
All patients
  Rescue medication use: seven
Any cause, unrelated to rilzabrutinib treatment
  grade 3 anemia: 2 n
[2]
  grade 3 abnormal alanine aminotransferase levels: one each
  grade 3 contusion: one each
  grade 3 gastrointestinal hemorrhage: one each
  grade 3 hematoma: one each
  grade 3 immune thrombocytopenia: one each
  grade 3 myelofibrosis: one each
  grade 3 thrombocytopenia: one each
  grade 4 Evans syndrome: one each
  grade 4 thrombocytopenia: one each
Baseline or week 24/EOS, n=34
  grade 3, 4, or 5 bleeding events (IBLS Bleeding Scale): no grade 3, 4, or 5 bleeding events
[3]
  IBLS bleeding scale scores within each domain: no increase in bleeding from baseline through the end of treatment
  IBLS bleeding scale scores, skin and oral sites: improved at skin and oral sites
